Data published in US20230285598A1, “SULFOXONIUM YLIDE DERIVATIVES AS PROBES FOR CYSTEINE PROTEASE” (Takeda Pharmaceutical Company Limited, priority 2018, published 2023).
“Also recorded” adds a separate entry of the source.

Columns and labels:
cathepsin X [1] = target: cathepsin X (Homo sapiens, UniProt Q9UBR2); assay: Labeling of human oral squamous cell carcinoma tissue lysates, in-gel fluorescence; format: biochemical; parameters: Tissues were lysed by sonication in citrate buffer and supernatants were cleared by centrifugation; from tissue; host or cells: human oral squamous cell carcinoma biopsies and patient-matched normal oral mucosa; details: °C5 µM for 20 minutes; 80 µg protein
Sequence of cathepsin X (Homo sapiens, UniProt Q9UBR2) (Q9UBR2 62-303): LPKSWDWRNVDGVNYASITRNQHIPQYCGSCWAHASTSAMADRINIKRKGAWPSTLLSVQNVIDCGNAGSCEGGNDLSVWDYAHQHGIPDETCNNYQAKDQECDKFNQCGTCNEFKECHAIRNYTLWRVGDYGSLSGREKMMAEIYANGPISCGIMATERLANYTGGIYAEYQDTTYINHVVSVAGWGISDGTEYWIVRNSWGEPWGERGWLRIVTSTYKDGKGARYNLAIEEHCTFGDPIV
Excerpt: To investigate the ability of sCy5-,Nle-SY to label cathepsin X in human tissues, biopsies that were obtained from patients with oral squamous cell carcinoma were used. Normal oral mucosal tissues that were biopsied from the contralateral side of the tongues of the same patients were used as controls.
The human oral squamous cell carcinomas or patient-matched normal oral mucosa were biopsied according to protocols approved by the Institutional Review Board at the New York University Oral Cancer Centre. Biopsies were immediately snap-frozen and stored at -80° C. Tissues were lysed by sonication in citrate buffer and supernatants were cleared by centrifugation. Total protein concentration was assessed by BCA assay and 80 µg were labelled with Cy5-Nle-SY: The lysates prepared from the oral squamous cell carcinoma tissue or patient-matched normal oral mucosa were incubated with sCy5-Nle-SY (°C5 µM for 20 minutes) and labeling was analyzed by in-gel fluorescence (fluorescent SDS-PAGE). Samples were also immunoblotted to determine total cathepsin X expression (n=10). Additionally, the sCy5-Nle-SY-labeled cancer lysates were immunoprecipitated with a cathepsin X-specific antibody to verify the identity of the labeled protein.

cathepsin X [2] = target: cathepsin X (Mus musculus, UniProt Q9WUU7); assay: In vivo probe labeling in mice (intravenous), tissues analyzed by fluorescent SDS-PAGE
Sequence of cathepsin X (Mus musculus, UniProt Q9WUU7) (Q9WUU7 64-306): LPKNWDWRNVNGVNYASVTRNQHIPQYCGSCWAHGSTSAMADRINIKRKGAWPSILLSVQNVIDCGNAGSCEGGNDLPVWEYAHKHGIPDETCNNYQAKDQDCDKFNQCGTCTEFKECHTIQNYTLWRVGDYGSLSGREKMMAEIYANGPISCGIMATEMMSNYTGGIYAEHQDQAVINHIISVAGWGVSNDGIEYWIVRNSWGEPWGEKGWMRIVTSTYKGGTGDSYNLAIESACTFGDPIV
Method: For in vivo labeled tissues, mice were first injected intravenously via the tail vein with sCy5-Nle-SY, BMV109, or sCy5-Nle-AOMK (50 nmol in 100 µl 10% DMSO/PBS or vehicle control). Tissues were harvested and analyzed as above except without further probe addition.
In Example 10, the probe sCy5-Nle-SY, vehicle control/no probe (NP) or BMV109 were injected into mice intravenously. After two hours of circulation, tissues were harvested, lysed, and analyzed for probe labeling by fluorescent SDS-PAGE.
In Example 12, the AOMK probe sCy5-Nle-AOMK was tested in vivo and its labeling in tissues was analyzed. The probe was injected into mice intravenously. After two hours of circulation, tissues were harvested, lysed, and analyzed for probe labeling by fluorescent SDS-PAGE.

[3] = intravenous 50 nmol, two hours of circulation

## CCCC[C@H](NC(=O)CCCCCN1/C(=C/C=C/C=C/C2=[N+](CC)c3ccc(S(=O)(=O)[O-])cc3C2(C)C)C(C)(C)c2cc(S(=O)(=O)O)ccc21)C(=O)C=S(C)(C)=O [sCy5-Nle-SY]
Cathepsin X [1]
  labeling of cathepsin X in human oral squamous cell carcinoma lysates: clear and selective labeling of cathepsin X was observed
Cathepsin X [2]; [3]
  labeling of cathepsin S, B and L in tissues after in vivo administration: some labeling of cathepsin S was also observed; also recorded: does not label cathepsin B or L
  labeling of cathepsin X in tissues after in vivo administration: Labeling of cathepsin X was observed in liver, kidney, colon, stomach, and spleen
Cathepsin X [2]; intravenous, two hours, compared to BMV109
  overall specificity profile in vivo: clearly improved compared to BMV109
